# Data as given in patent US20100298141A1, “SUBSTITUTED PYRIDINE N-OXIDE HERBICIDES” (E. I. DU PONT DE NEMOURS AND COMPANY, priority 2007, published 2010).
# How the values were obtained:
# [1] = tested on: giant foxtail; test: Test A pre-/postemergence greenhouse test; format: in vivo, Setaria faberi; conditions: for Foxtail, Giant plant response rating: 0 to 100 scale; for Plant response rating, Foxtail, Giant: 0 to 100 scale where 0 is no effect and 100 is complete control
# In short: (§1)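 Greenhouse herbicide screen, pre- and postemergence in parallel. Soil: loam plus sand. Formulation: non-phytotoxic solvent mix with surfactant. Postemergence stage: one to two leaves, 2–10 cm height. Evaluation: visual injury, compared with untreated controls, about 10 days after treatment.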
# [2] = tested on: velvetleaf; test: Test A pre-/postemergence greenhouse test; format: in vivo, Abutilon theophrasti; conditions: for Velvetleaf plant response rating: 0 to 100 scale; for Plant response rating, Velvetleaf: 0 to 100 scale where 0 is no effect and 100 is complete control
# In short: as §1
# [3] = tested on: wheat; test: Test C pre-/postemergence test; format: in vivo, Triticum aestivum
# In short: (§2)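 Test chemicals were formulated with surfactant in a non-phytotoxic solvent and sprayed both on freshly planted seeds (preemergence) and on 1- to 4-leaf plants of 2–18 cm (postemergence). Flooded-paddy pots received compound directly into 3 cm of standing water, maintained for the test.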
# [4] = tested on: common ragweed; test: Test C pre-/postemergence test; format: in vivo, Ambrosia elation
# In short: as §2
# [5] = tested on: barnyardgrass; test: Test C flooded paddy test; format: in vivo, Echinochloa crus-galli; conditions: Flood
# In short: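 Greenhouse pots flooded to 3 cm above soil at time of treatment received compound via the water, which stayed at that level.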
# [6] = tested on: green foxtail; test: Test F preemergence test; format: in vivo, Setaria viridis; conditions: scale 0 to 100
# In short: (§3)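 Preemergence application to planted seeds, or postemergence to sugarcane plants; compound in non-phytotoxic solvent mix plus surfactant. Greenhouse, 14-21 days. Visual rating vs. controls.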
# [7] = tested on: purple nutsedge; test: Test F preemergence test; format: in vivo, Cyperus rotundus; conditions: scale 0 to 100
# In short: as §3
# [8] = tested on: southern sandbur; test: Test F preemergence test; format: in vivo, Cenchrus echinatus; conditions: scale 0 to 100
# In short: as §3
# [9] = tested on: annual bluegrass; test: Test F preemergence test; format: in vivo, Poa annua; conditions: scale 0 to 100
# In short: as §3
# [10] = tested on: field bindweed; test: Test F preemergence test; format: in vivo, Convolvulus arvensis; conditions: scale 0 to 100
# In short: as §3
# [11] = tested on: common mallow; test: Test F preemergence test; format: in vivo, Malva sylvestris; conditions: scale 0 to 100
# In short: as §3
# [12] = Postemergence, 125 g ai/ha, 0 is no effect, 100 is complete control
# [13] = Postemergence, 500 g ai/ha, 0 is no effect, 100 is complete control
# [14] = Preemergence, 125 g ai/ha, 0 no effect, 100 complete control
# [15] = 62 g ai/ha, Preemergence, scale 0 to 100
# [16] = Preemergence, 31 g ai/ha, scale 0 to 100 (0 no effect, 100 complete control)
# [17] = 125 g ai/ha, preemergence, scale 0 (no effect) to 100 (complete control)
# [18] = preemergence, 250 g ai/ha, scale 0 (no effect) to 100 (complete control)
# [19] = 62 g ai/ha, scale 0 to 100 (0 no effect, 100 complete control)
# [20] = 250 g ai/ha, scale 0 to 100, 0 no effect, 100 complete control, 13 to 15 days
# [21] = Postemergence, 125 g ai/ha, scale 0 to 100, 0 no effect, 100 complete control
# [22] = Postemergence, 250 g ai/ha, scale 0 to 100, 0 no effect, 100 complete control
smiles,measurement,setting,value
Cn1nc(C(F)(F)F)c(C[S+]([O-])c2cccc[n+]2[O-])c1OCC(F)(F)F (racemic) [Compound 28],"Foxtail, Giant plant response rating",[1]; [12],90
same,"Foxtail, Giant plant response rating",[1]; [13],90
same,"Foxtail, Giant plant response rating",[1]; [14],100
same,"Plant response rating, Foxtail, Giant","[1]; Preemergence, 500 g ai/ha",100
same,Velvetleaf plant response rating,[2]; [12],70
same,Velvetleaf plant response rating,[2]; [13],80
same,Velvetleaf plant response rating,[2]; [14],80
same,"Plant response rating, Velvetleaf","[2]; Preemergence, 500 g ai/ha",100
same,Wheat plant response rating,[3]; [15],40
same,"Plant response rating, Wheat",[3]; [16],0
same,Ragweed plant response rating,[4]; [15],85
same,"Plant response rating, Ragweed",[4]; [16],65
same,"Plant response rating, Barnyardgrass","[5]; 31 g ai/ha, scale 0 to 100 (0 no effect, 100 complete control)",0
same,"Plant response rating, Barnyardgrass","[5]; 62 g ai/ha, scale 0 to 100, 0 no effect, 100 complete control, 13 to 15 days",20
same,"Plant response rating, Barnyardgrass","[5]; 125 g ai/ha, scale 0 to 100, 0 no effect, 100 complete control, 13 to 15 days",65
same,"Plant response rating, Barnyardgrass","[5]; 250 g ai/ha, scale 0 to 100 (0 no effect, 100 complete control)",85
same,"Foxtail, Green plant response rating","[6]; 62 g ai/ha, Preemergence",100
same,"Foxtail, Green plant response rating","[6]; 125 g ai/ha, preemergence",100
same,"Plant response rating, Foxtail, Green","[6]; Preemergence, 16 g ai/ha",30
same,"Plant response rating, Foxtail, Green","[6]; Preemergence, 31 g ai/ha",80
same,Purple Nutsedge plant response rating,"[7]; 62 g ai/ha, Preemergence",80
same,Purple Nutsedge plant response rating,"[7]; 125 g ai/ha, preemergence",90
same,"Plant response rating, Purple Nutsedge","[7]; Preemergence, 16 g ai/ha",0
same,"Plant response rating, Purple Nutsedge","[7]; Preemergence, 31 g ai/ha",25
same,Sandbur plant response rating,"[8]; 62 g ai/ha, Preemergence",100
same,Sandbur plant response rating,"[8]; 125 g ai/ha, preemergence",100
same,"Plant response rating, Sandbur","[8]; Preemergence, 31 g ai/ha",90
same,Bluegrass plant response rating,"[9]; 62 g ai/ha, Preemergence",65
same,Bluegrass plant response rating,"[9]; 125 g ai/ha, preemergence",100
same,"Plant response rating, Bluegrass","[9]; Preemergence, 16 g ai/ha",0
same,"Plant response rating, Bluegrass","[9]; Preemergence, 31 g ai/ha",40
same,Field Bindweed plant response rating,"[10]; 62 g ai/ha, Preemergence",80
same,Field Bindweed plant response rating,"[10]; 125 g ai/ha, preemergence",90
same,"Plant response rating, Field Bindweed","[10]; Preemergence, 16 g ai/ha",60
same,"Plant response rating, Field Bindweed","[10]; Preemergence, 31 g ai/ha",70
same,Mallow plant response rating,"[11]; 62 g ai/ha, Preemergence",100
same,Mallow plant response rating,"[11]; 125 g ai/ha, preemergence",100
same,"Plant response rating, Mallow","[11]; Preemergence, 16 g ai/ha",0
same,"Plant response rating, Mallow","[11]; Preemergence, 31 g ai/ha",100
CCn1nc(C(F)(F)F)c(CS(=O)(=O)c2cccc[n+]2[O-])c1OCC(F)(F)F [Compound 63],"Plant response rating, Foxtail, Giant","[1]; Postemergence, 125 g ai/ha",80
same,"Foxtail, Giant plant response rating",[1]; [13],90
same,"Foxtail, Giant plant response rating",[1]; [14],100
same,"Plant response rating, Foxtail, Giant","[1]; Preemergence, 500 g ai/ha",100
same,"Plant response rating, Velvetleaf","[2]; Postemergence, 125 g ai/ha",60
same,Velvetleaf plant response rating,[2]; [13],80
same,Velvetleaf plant response rating,[2]; [14],60
same,"Plant response rating, Velvetleaf","[2]; Preemergence, 500 g ai/ha",100
same,Wheat plant response rating,[3]; [15],20
same,Wheat plant response rating,[3]; [17],60
same,"Plant response rating, Wheat",[3]; [16],0
same,Wheat plant response rating,[3]; [18],85
same,Ragweed plant response rating,[4]; [15],100
same,Ragweed plant response rating,[4]; [17],100
same,"Plant response rating, Ragweed",[4]; [16],90
same,Ragweed plant response rating,[4]; [18],100
same,"Plant response rating, Barnyardgrass",[5]; [19],40
same,"Plant response rating, Barnyardgrass",[5]; [20],40
same,"Plant response rating, Foxtail, Green","[6]; 16 g ai/ha, preemergence",65
same,"Foxtail, Green plant response rating","[6]; 62 g ai/ha, Preemergence",90
same,"Foxtail, Green plant response rating","[6]; 125 g ai/ha, preemergence",100
same,"Plant response rating, Foxtail, Green","[6]; Preemergence, 31 g ai/ha",80
same,"Plant response rating, Purple Nutsedge","[7]; 16 g ai/ha, preemergence",0
same,Purple Nutsedge plant response rating,"[7]; 62 g ai/ha, Preemergence",65
same,Purple Nutsedge plant response rating,"[7]; 125 g ai/ha, preemergence",75
same,"Plant response rating, Purple Nutsedge","[7]; Preemergence, 31 g ai/ha",15
same,"Plant response rating, Sandbur","[8]; 16 g ai/ha, preemergence",65
same,Sandbur plant response rating,"[8]; 125 g ai/ha, preemergence",100
same,"Plant response rating, Sandbur","[8]; Preemergence, 62 g ai/ha",100
same,"Plant response rating, Sandbur","[8]; Preemergence, 31 g ai/ha",100
same,"Plant response rating, Bluegrass","[9]; 16 g ai/ha, preemergence",25
same,Bluegrass plant response rating,"[9]; 62 g ai/ha, Preemergence",90
same,Bluegrass plant response rating,"[9]; 125 g ai/ha, preemergence",100
same,"Plant response rating, Bluegrass","[9]; Preemergence, 31 g ai/ha",65
same,"Plant response rating, Field Bindweed","[10]; 16 g ai/ha, preemergence",0
same,Field Bindweed plant response rating,"[10]; 62 g ai/ha, Preemergence",0
same,Field Bindweed plant response rating,"[10]; 125 g ai/ha, preemergence",0
same,"Plant response rating, Field Bindweed","[10]; Preemergence, 31 g ai/ha",0
same,"Plant response rating, Mallow","[11]; 16 g ai/ha, preemergence",0
same,Mallow plant response rating,"[11]; 125 g ai/ha, preemergence",100
same,"Plant response rating, Mallow","[11]; Preemergence, 31 g ai/ha",98
Cn1nc(C(F)(F)F)c(C[S+]([O-])c2ccc(F)c[n+]2[O-])c1OC(F)F (stereo not drawn) [Compound 58],"Plant response rating, Foxtail, Giant","[1]; Postemergence, 125 g ai/ha",90
same,"Foxtail, Giant plant response rating",[1]; [13],90
same,"Foxtail, Giant plant response rating",[1]; [14],100
same,"Plant response rating, Foxtail, Giant","[1]; Preemergence, 500 g ai/ha",100
same,"Plant response rating, Velvetleaf","[2]; Postemergence, 125 g ai/ha",60
same,Velvetleaf plant response rating,[2]; [13],80
same,Velvetleaf plant response rating,[2]; [14],60
same,"Plant response rating, Velvetleaf","[2]; Preemergence, 500 g ai/ha",100
same,Wheat plant response rating,[3]; [15],60
same,Wheat plant response rating,[3]; [17],85
same,"Plant response rating (0 to 100), Wheat","[3]; Postemergence, 31 g ai/ha",0
same,"Plant response rating (0 to 100), Wheat","[3]; Postemergence, 62 g ai/ha",0
same,"Plant response rating, Wheat",[3]; [21],20
same,"Plant response rating, Wheat",[3]; [22],60
same,"Plant response rating, Wheat",[3]; [16],10
same,Wheat plant response rating,[3]; [18],90
same,Ragweed plant response rating,[4]; [15],30
same,Ragweed plant response rating,[4]; [17],55
same,"Plant response rating (0 to 100), Ragweed","[4]; Postemergence, 31 g ai/ha",0
same,"Plant response rating (0 to 100), Ragweed","[4]; Postemergence, 62 g ai/ha",0
same,"Plant response rating, Ragweed",[4]; [21],0
same,"Plant response rating, Ragweed",[4]; [22],30
same,"Plant response rating, Ragweed",[4]; [16],30
same,Ragweed plant response rating,[4]; [18],100
same,"Plant response rating, Barnyardgrass",[5]; [19],65
same,"Plant response rating, Barnyardgrass",[5]; [20],85
same,"Foxtail, Green plant response rating","[6]; 62 g ai/ha, Preemergence",95
same,"Foxtail, Green plant response rating","[6]; 125 g ai/ha, preemergence",100
same,"Foxtail, Green plant response rating","[6]; 250 g ai/ha, preemergence",100
same,"Plant response rating, Foxtail, Green","[6]; Preemergence, 31 g ai/ha",60
same,Purple Nutsedge plant response rating,"[7]; 62 g ai/ha, Preemergence",80
same,Purple Nutsedge plant response rating,"[7]; 125 g ai/ha, preemergence",95
same,Purple Nutsedge plant response rating,"[7]; 250 g ai/ha, preemergence",95
same,"Plant response rating, Purple Nutsedge","[7]; Preemergence, 31 g ai/ha",0
same,Sandbur plant response rating,"[8]; 125 g ai/ha, preemergence",100
same,Sandbur plant response rating,"[8]; 250 g ai/ha, preemergence",100
same,"Plant response rating, Sandbur","[8]; Preemergence, 62 g ai/ha",100
same,"Plant response rating, Sandbur","[8]; Preemergence, 31 g ai/ha",80
same,Bluegrass plant response rating,"[9]; 62 g ai/ha, Preemergence",70
same,Bluegrass plant response rating,"[9]; 125 g ai/ha, preemergence",95
same,Bluegrass plant response rating,"[9]; 250 g ai/ha, preemergence",100
same,"Plant response rating, Bluegrass","[9]; Preemergence, 31 g ai/ha",0
same,Field Bindweed plant response rating,"[10]; 62 g ai/ha, Preemergence",0
same,Field Bindweed plant response rating,"[10]; 125 g ai/ha, preemergence",20
same,Field Bindweed plant response rating,"[10]; 250 g ai/ha, preemergence",65
same,"Plant response rating, Field Bindweed","[10]; Preemergence, 31 g ai/ha",0
same,Mallow plant response rating,"[11]; 62 g ai/ha, Preemergence",25
same,Mallow plant response rating,"[11]; 125 g ai/ha, preemergence",90
same,Mallow plant response rating,"[11]; 250 g ai/ha, preemergence",100
